The values that follow come from the supplement of paper PMC8920030.

Holding throughout (details): growth mode: biofilm, 24 h; exposure time: 24 h
Compound in test [1]: T1, CCC(C)CCCC(=O)N[C@@H](CCN)C(=O)N[C@H](C(=O)N[C@@H](CCN)C(=O)N[C@H]1CCNC(=O)[C@H]([C@@H](C)O)NC(=O)[C@H](CCN)NC(=O)[C@H](CCN)NC(=O)[C@H](CC(C)C)NC(=O)[C@@H](CC(C)C)NC(=O)[C@H](CCN)NC1=O)[C@@H](C)O [colistin]
Kind of test: minimum concentration of killing, 2-log CFU reduction of biofilm (MCK99); higher = more biofilm tolerance. The protocol: (§1)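 Clinical P. aeruginosa isolates were grown as static biofilms for 24 h at 37 °C in LB in half-area 96-well plates, then exposed for 24 h to colistin at 1, 4, 16, 64, 256 or […]. Surviving CFU were counted by spotting serial dilutions. MCK is the lowest tested concentration giving the stated log reduction in CFU versus an untreated control; '>1024' means the reduction was not reached at the top dose, and 1 is the lowest dose tested (≤1).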

Compound in test [2]: T2, NC[C@H]1O[C@H](O[C@H]2[C@H](O)[C@@H](O[C@H]3O[C@H](CO)[C@@H](O)[C@H](N)[C@H]3O)[C@H](N)C[C@@H]2N)[C@H](N)C[C@@H]1O [tobramycin]
Kind of test: minimum concentration eradicating biofilm below detection limit (MCK-E); higher = more biofilm tolerance. As to the method:
(§2)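 Clinical P. aeruginosa isolates were grown as static biofilms for 24 h at 37 °C in LB in half-area 96-well plates, then exposed for 24 h to tobramycin at 1, 4, 16, 64, 256 or […]. Surviving CFU were counted by spotting serial dilutions. MCK is the lowest tested concentration giving the stated log reduction in CFU versus an untreated control; '>1024' means the reduction was not reached at the top dose, and 1 is the lowest dose tested (≤1).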

Compound in test [3]: T2, tobramycin
Kind of test: minimum concentration of killing, 1-log CFU reduction of biofilm (MCK90); higher = more biofilm tolerance. The protocol: as §2

Compound in test [4]: T1, colistin
Kind of test: minimum concentration of killing, 4-log CFU reduction of biofilm (MCK99.99); higher = more biofilm tolerance. The protocol: as §1

Compound in test [5]: T2, tobramycin
Kind of test: minimum concentration of killing, 2-log CFU reduction of biofilm (MCK99); higher = more biofilm tolerance. The protocol:
as §2

Compound in test [6]: T1, colistin
Description: minimum concentration of killing, 1-log CFU reduction of biofilm (MCK90); higher = more biofilm tolerance. The protocol: as §1

Compound in test [7]: T2, tobramycin
Description: minimum concentration of killing, 4-log CFU reduction of biofilm (MCK99.99); higher = more biofilm tolerance. As to the method: as §2

Compound in test [8]: T1, colistin
Kind of test: minimum concentration eradicating biofilm below detection limit (MCK-E); higher = more biofilm tolerance. The protocol:
as §1

Where only a bound is given, the exact number is not on record here.

“Pseudomonas aeruginosa clinical isolate ESP046”: the “minimum concentration of killing” value in test [1] was determined as 256 µg/mL; in test [3], 16 µg/mL; in test [4], 256 µg/mL; in test [5], 1020 µg/mL; in test [6] it was 256 µg/mL; in test [7], 1020 µg/mL. In addition, the “minimum concentration eradicating biofilm below detection limit” value in test [2] amounted to 1020 µg/mL; in test [8], 256 µg/mL.

As to “Pseudomonas aeruginosa clinical isolate ESP050”, the “minimum concentration of killing” value in test [1] is 256 µg/mL; in test [3], 64 µg/mL; in test [4] it was 256 µg/mL; in test [5] it was 1020 µg/mL; in test [6], 64 µg/mL; in test [7], 1020 µg/mL. Also, the entries for the “minimum concentration eradicating biofilm below detection limit” value in test [2] and in test [8] were 1020 µg/mL and 256 µg/mL, respectively.

In the case of “Pseudomonas aeruginosa clinical isolate ESP054”, the “minimum concentration of killing” value is 256 µg/mL in test [1]; 4 µg/mL in test [3]; 256 µg/mL in test [4]; 4 µg/mL in test [5]; 64 µg/mL in test [6]; 256 µg/mL in test [7]. Besides, the “minimum concentration eradicating biofilm below detection limit” value in test [2] and in test [8] was 256 µg/mL each time.

With “Pseudomonas aeruginosa clinical isolate ESP055”, the “minimum concentration of killing” value in test [1] is 256 µg/mL; in test [3], at most 1 µg/mL; in test [4], 256 µg/mL; in test [5], 16 µg/mL; in test [6], 64 µg/mL; in test [7], 16 µg/mL. Further, the “minimum concentration eradicating biofilm below detection limit” value came out at 64 µg/mL in test [2] and 256 µg/mL in test [8].

With “Pseudomonas aeruginosa clinical isolate ESP058”, the “minimum concentration of killing” value was 256 µg/mL in test [1]; 4 µg/mL in test [3]; 256 µg/mL in test [4]; 16 µg/mL in test [5]; 256 µg/mL in test [6]; 64 µg/mL in test [7]. Further, the “minimum concentration eradicating biofilm below detection limit” value in test [2] stood at 64 µg/mL; in test [8] it was 256 µg/mL.

For “Pseudomonas aeruginosa clinical isolate ESP059”, the “minimum concentration of killing” value is 256 µg/mL in test [1]; at most 1 µg/mL in test [3]; 256 µg/mL in test [4]; 4 µg/mL in test [5]; 64 µg/mL in test [6]; 256 µg/mL in test [7]. Moreover, the “minimum concentration eradicating biofilm below detection limit” value in test [2] and in test [8] was 256 µg/mL throughout.

Consider “Pseudomonas aeruginosa clinical isolate ESP060”, for which the “minimum concentration of killing” value in test [1] is 256 µg/mL; in test [3], above 1020 µg/mL; in test [4], 1020 µg/mL; in test [5] it was above 1020 µg/mL; in test [6] it was 256 µg/mL; in test [7] it was above 1020 µg/mL. The “minimum concentration eradicating biofilm below detection limit” value in test [2] is above 1020 µg/mL; in test [8] it was 1020 µg/mL.

Consider “Pseudomonas aeruginosa clinical isolate ESP063”, for which the “minimum concentration of killing” value was 16 µg/mL in test [1]; 256 µg/mL in test [3]; 256 µg/mL in test [4]; 1020 µg/mL in test [5]; at most 1 µg/mL in test [6]; above 1020 µg/mL in test [7]. In addition, the “minimum concentration eradicating biofilm below detection limit” value was above 1020 µg/mL in test [2] and 256 µg/mL in test [8].

Take “Pseudomonas aeruginosa clinical isolate ESP066”: the “minimum concentration of killing” value is 256 µg/mL in test [1]; 256 µg/mL in test [3]; 1020 µg/mL in test [4]; 256 µg/mL in test [5]; 256 µg/mL in test [6]; above 1020 µg/mL in test [7]. In addition, the “minimum concentration eradicating biofilm below detection limit” value is above 1020 µg/mL in test [2] and 1020 µg/mL in test [8].

As for “Pseudomonas aeruginosa clinical isolate ESP067”, the “minimum concentration of killing” value in test [1] was 256 µg/mL; in test [3], 4 µg/mL; in test [4], 256 µg/mL; in test [5], 16 µg/mL; in test [6], 64 µg/mL; in test [7] it was 256 µg/mL. Moreover, the “minimum concentration eradicating biofilm below detection limit” value in test [2] is 1020 µg/mL; in test [8] it was 256 µg/mL.

On to “Pseudomonas aeruginosa clinical isolate ESP070”, for which the “minimum concentration of killing” value was 256 µg/mL in test [1]; 1020 µg/mL in test [3]; 1020 µg/mL in test [4]; 1020 µg/mL in test [5]; 64 µg/mL in test [6]; above 1020 µg/mL in test [7]. Besides, the “minimum concentration eradicating biofilm below detection limit” value in test [2] was above 1020 µg/mL; in test [8], 1020 µg/mL.

In the case of “Pseudomonas aeruginosa clinical isolate ESP072”, the “minimum concentration of killing” value was 256 µg/mL in test [1]; 4 µg/mL in test [3]; 256 µg/mL in test [4]; 16 µg/mL in test [5]; 64 µg/mL in test [6]; 256 µg/mL in test [7]. The “minimum concentration eradicating biofilm below detection limit” value in test [2] and in test [8] was 256 µg/mL each time.

For the test system “Pseudomonas aeruginosa clinical isolate ESP073”, the “minimum concentration of killing” value in test [1] was 256 µg/mL; in test [3], 16 µg/mL; in test [4], 256 µg/mL; in test [5], 16 µg/mL; in test [6] it was 16 µg/mL; in test [7], 64 µg/mL. Moreover, the “minimum concentration eradicating biofilm below detection limit” value in test [2] and in test [8] was 256 µg/mL each time.

For “Pseudomonas aeruginosa clinical isolate ESP075”, the “minimum concentration of killing” value in test [1] is 256 µg/mL; in test [3], at most 1 µg/mL; in test [4] it was 256 µg/mL; in test [5] it was 4 µg/mL; in test [6], 256 µg/mL; in test [7], 64 µg/mL. For the same test system, the “minimum concentration eradicating biofilm below detection limit” value in test [2] and in test [8] was 256 µg/mL throughout.
